We go through three molecules from patent US8461146B2, “Pharmaceutical composition for the treatment of premature ejaculation” (priority 2008, dated 2013).

The conditions of data set [1]: clomipramine 50 mg; sertraline 50 mg to 200 mg per day; fluoxetine 40 mg and another report; cited from earlier work.
The subject of data set [2] is premature ejaculation patients. Conditions: clomipramine 25 mg or 50 mg per day; sertraline 50 mg to 200 mg per day; fluoxetine 40 mg; cited from earlier work.
Data set [3] relates to Patients with premature ejaculation of 60 seconds or less. The data set is described as follows: Clinical study: treatment effect in patients with premature ejaculation. In kind it is in vivo, human. Conditions: sertraline 50.0 mg, fluoxetine 20.0 mg, triple C 7.5 + S 11.3 + F 5.9 mg, 3 weeks; for Patient no. with ELT of 10 min or over: of 20 patients per group, daily dose clomipramine 22.4 mg, 3 hours before intercourse; for Treatment effect: share of 20 patients with ELT 10 min or more, clomipramine 22.4 mg. The method, then:
Patients with premature ejaculation of 60 seconds or less were divided into 4 groups of twenty people. […] A dose was taken 3 hours before the sexual intercourse begins, and the administration period was for 3 weeks. The effect of the administration of the drugs to the patients examined through interviews with the patients. A drug was determined as effective when the patient's ejaculation latency time had been 10 minutes or more.

Data set [4] in a line: Side effect evaluation, clinical study (sedation). In kind it is in vivo, human. Conditions: clomipramine 22.4 mg, triple C 7.5 + S 11.3 + F 5.9 mg. The method, then: (§1) Patients with premature ejaculation of 60 seconds or less were divided into 4 groups of twenty people. […] A dose was taken 3 hours before the sexual intercourse begins, and the administration period was for 3 weeks. The effect of the administration of the drugs to the patients examined through interviews with the patients.
A side effect incidence rate of sedation was investigated among patients who took each drug in Example 4.

The subject of data set [5] is sexually active male Crl:CD (SD) rats. Description: Pharmacological effect evaluation (rats): copulatory behavior test, ejaculation latency time. Particulars: single drugs and double-drug combinations, C 2.70, S 6.02, F 2.41 mg/kg; for Ejaculation latency time, mean ± S.E.M.: single oral, test 3 h after dosing; for Increasing rate of ELT: vs negative control. In kind it is in vivo. As to the method: According to the method of Brain Res Brain Res Protoc, 1997, (1):203-9, this experiment was executed by employing male and female Crl:CD (SD) rats above 20 weeks old as test animals.
The female rats were anesthetized by the intraperitoneal injection of combination of ketamine 75 mg/kg and xylazine 25 mg/kg. After performing laparotomy, the ovaries were removed and peritoneal wall was closed with sutures. 2 ml of 10% ampicillin was injected intraperitoneally and the female rats had recovery period of 7 days. Ovariectomied females were brought into artificial estrus by subcutaneous injection of 20 μg/rat of estradiol benzoate, dissolved in 0.2 ml of sesame oil, about 52 hours before the administration of a test compound, followed by s.c injection of 1 mg/rat of progestrerone, dissolved in 0.2 ml of sesame oil, about 4 hours before the administration of a test compound.
Screening test was performed in an observation cage (60×40×30 cm) with plexiglass front. Before screening test, the male rats were allowed to adapt to the observation cage for 10 minutes and then the female rats with artificial estrus were brought into the cage. If male rats had ejaculated within 30 minutes, they were regarded as sexually active ones. Selected male rats went through copulatory experience for 5 times at 3 days intervals.
The experienced males were divided into 15 groups of about 10 animals so that the mean ejaculation latency time (ELT) of groups are similar. Test compound was single orally administered.
Group 1 as a negative control was administered with 0.5% methylcellulose 1500 (Sigma Co., hereinafter as “MC 1500”). […] Groups 5˜7 were administered with double-drug combinations. Groups 8˜15 were administered with triple-drug combinations having various doses. Detailed doses are represented in Table 2 below.
After 2 hours and 50 minutes from the administration of test compounds, the male rats were allowed to adapt to the observation cage for 10 minutes. Then copulatory behavior test was initiated with the introduction of female rats with artificial estrus into the observation cage. The ejaculation latency time (ELT) as the time from the first intromission until the ejaculation was evaluated.

The conditions of data set [6]: rat, in vivo, po.
Method: Rats were supplemented with about 200 μl of heparinized saline (20 IU/ml) at each sampling times.
The maximum plasma concentration (Cmax) and the time to reach Cmax (Tmax) were obtained from the plasma concentration-time curve. The area under the plasma concentration-time curve (AUC) was calculated by using the trapezoidal rule.
Data set [7] can be described thus: Side effect evaluation, clinical study (nausea). In kind it is in vivo, human. Conditions: sertraline 50.0 mg, triple C 7.5 + S 11.3 + F 5.9 mg. The method, then:
as §1
A side effect incidence rate of nausea was investigated among patients who took each drug in Example 4.

Each structure is given as a SMILES string. “Also recorded” adds a separate entry of the source.

Regarding `CN(C)CCCN1c2ccccc2CCc2ccc(Cl)cc21` [Clomipramine, clomipramine], the “Side effects (literature)” value in data set [1] is “constipation, dry-mouth, nausea, drowsiness, headache and dizziness”. The “Ejaculation delay effect (literature)” value in data set [2] was “ejaculation latency effect; also recorded: ejaculation was delayed”. In data set [3], the “Patient no. with ELT of 10 min or over” value is reported as 15 and the Treatment effect was found to be 75%. In addition, the “Incidence rate of sedation” value in data set [4] (20 patients) was 70%. The No. of sedation in data set [4] (of 20 patients) stood at 14. Moreover, in data set [5], the “Ejaculation latency time, mean ± S.E.M.” value was found to be 177.2 ± 47.6 s and the “Increasing rate of ELT” value is given as −14.3%.
As for `CNCCC(Oc1ccc(C(F)(F)F)cc1)c1ccccc1` (centres unmarked) [Fluoxetine, fluoxetine], the “Cmax and AUC after triple-drug combination compared with single drug administration (in words)” value in data set [6] was “increases in Cmax and AUC”. Further, the “Side effects (literature)” value in data set [1] is “drowsiness, dry-mouth, nausea, vomiting; also recorded: nausea, headache, and insomnia”. The “Ejaculation delay effect (literature)” value in data set [2] is reported as “the ejaculation delay effect was weak”. Further, in data set [3], the “Patient no. with ELT of 10 min or over” value came out at 0 and the Treatment effect result was “the curative effect did not show up”. In data set [5], the “Ejaculation latency time, mean ± S.E.M.” value came out at 141.3 ± 51.2 s and the “Increasing rate of ELT” value is listed as −31.7%.
For the molecule `CN[C@H]1CC[C@@H](c2ccc(Cl)c(Cl)c2)c2ccccc21` [Sertraline, sertraline], the “Cmax and AUC after triple-drug combination compared with single drug administration (in words)” value in data set [6] was “only AUC increased significantly”. Also, the “Side effects (literature)” value in data set [1] was “nausea, vomiting”. For the same molecule, in data set [2], the “Ejaculation delay effect (literature)” value was “the ejaculation was delayed”. The “Patient no. with ELT of 10 min or over” value in data set [3] was determined as 8. Further, the results for the Treatment effect in data set [3] and in data set [3] (listed as sertraline) were 40% and “about 40%”, respectively. The “Incidence rate of nausea” value in data set [7] (20 patients) was 90%. For the same molecule, the No. of nausea in data set [7] (of 20 patients) is given as 18.
